One assay deals with T1, Aurora B (Homo sapiens, UniProt Q96GD4).
T1 construct: Reaction Biology (Malvern, Pa.), contract assay
The experiment in a line: Aurora B radiometric kinase assay (Reaction Biology). It is filed as biochemical. The method, then:
Aurora B and other radiometric kinase assays were performed by Reaction Biology (Malvern, Pa.).

The target in another assay is ROS/ROS1 (Homo sapiens, UniProt P08922). The assay can be described thus: Radiometric kinase assay, off-target ROS/ROS1. The following applies: off-target from DiscoveRx kinome profiling. It counts as biochemical. How it is done:
(§1) Aurora B and other radiometric kinase assays were performed by Reaction Biology (Malvern, Pa.). Kinome profiling of centrinone and centrinone-B was performed by DiscoveRx (San Diego, Calif.).

The next assay deals with RPE1 cells. The experiment in a line: Analysis of mitosis and daughter cell fate, RPE1. It is filed as cell-based, human. How it is done:
Analysis of mitosis and daughter cell fate. […] Cells were seeded into 96-well cycloolefin plates at 5000 cells/well, 8-10 hours before imaging. Movies were acquired on the CV1000 with a 40×0.95 NA U-PlanApo objective. The imaging chamber was maintained at 37° C. and 5% CO2. Image acquisition and data analysis were performed using CellVoyager software. 20 fields/well were imaged. For HeLa and NIH/3T3 cells, 5×2 μm z-sections in the GFP (25% power, 125 ms, 30% gain) and RFP (25% power, 100 ms, 30% gain) channels were captured in each field, at 5-minute intervals for 24 hours. For RPE1 cells, 5×2 μm z-sections in the GFP (20% power, 100 ms, 30% gain) and RFP (25% power, 100 ms, 30% gain) channels were captured in each field, at 5-minute intervals for 8 hours. To track RPE1 daughter cell fate, imaging was then switched to 3×4 μm z-sections in the RFP channel only, at 10-minute intervals for 48 hours. Mitosis was measured from nuclear envelope breakdown to anaphase onset (or arrest). Results represent combined measurements of 100 mother cells per condition from 2-4 independent experiments.
To study the correlation between mother cell prometaphase duration and daughter cell fate, RPE1 cells co-expressing centrin-GFP and H2B-RFP were seeded into 96-well cycloolefin plates at 5000 cells/well, 8-10 hours before imaging. Cells were treated with 80 nM nocodazole and immediately imaged on the CV1000 system with a 40×0.95 NA U-PlanApo objective. The imaging chamber was maintained at 37° C. and 5% CO2. 20 fields/well were imaged. 5×2 Lm z-sections in the GFP (20% power, 100 ms, 30% gain) and RFP (25% power, 100 ms, 30% gain) channels were captured in each field, at 5-minute intervals for 6 hours. The plate was then removed from the microscope, and wells were washed 6 times with warm medium. The plate was returned to the microscope, and imaging was resumed, capturing 3×4 Lm z-sections in the RFP channel only, at 10-minute intervals for 50 hours. To study the effect of chromosome missegregation on daughter cell fate, cells were treated with 1 LM NMS-P715 to inhibit the spindle assembly checkpoint kinase Mps1, then imaged as described above. Only mitotic events with clear missegregation (lagging chromosomes and subsequent formation of daughter cells with micronuclei) were analyzed. For both experiments, results represent combined measurements of 100 mother cells from 2 independent experiments.

Assay [1] relates to wild-type Plk4-GFP NIH/3T3 cells. The experiment in a line: Centriole overduplication assay, NIH/3T3 overexpressing wild-type Plk4-GFP. It counts as cell-based, mouse. The method, then: For generation of Plk4-GFP inducible NIH/3T3 cells, a mouse Plk4 cDNA C-terminally fused to eGFP was cloned into the lentiviral vector pLVX-TRE3G (Clontech). The G95L point mutation was generated by Quikchange mutagenesis (Agilent Technologies). Plasmids were transfected into HEK-293T cells using the Lenti-X HTX packaging system (Clontech), following manufacturer's instructions. 48 hours after transfection, virus-containing culture supernatant was harvested and added to the growth medium of Tet-On 3G NIH/3T3 cells (Clontech)+8 μg/ml polybrene (EMD Millipore).
Centriole overduplication assay. Tet-On 3G NIH/3T3 cells (Clontech) stably transduced with GFP, Plk4-GFP or Plk4(G95L)-GFP were seeded onto coverslips in a 12-well plate at 30,000 cells/well. Transgene expression was induced with 1 μg/ml doxycycline. […] Treated cells were incubated for 40 hours, and then washed with PBS and fixed in 100% methanol (−20° C., 5 minutes). Fixed samples were stained for γ-tubulin and Cep192, and mounted onto slides. Image acquisition and deconvolution were performed on the DeltaVision system equipped with a 100×1.3 NA U-PlanApo objective. Subsequent image processing was performed in ImageJ.

The target of another assay is T2, TNK1 (Homo sapiens, UniProt Q13470).
T2 construct: Reaction Biology (Malvern, Pa.), contract assay
T2 sequence (Q13470 1-666): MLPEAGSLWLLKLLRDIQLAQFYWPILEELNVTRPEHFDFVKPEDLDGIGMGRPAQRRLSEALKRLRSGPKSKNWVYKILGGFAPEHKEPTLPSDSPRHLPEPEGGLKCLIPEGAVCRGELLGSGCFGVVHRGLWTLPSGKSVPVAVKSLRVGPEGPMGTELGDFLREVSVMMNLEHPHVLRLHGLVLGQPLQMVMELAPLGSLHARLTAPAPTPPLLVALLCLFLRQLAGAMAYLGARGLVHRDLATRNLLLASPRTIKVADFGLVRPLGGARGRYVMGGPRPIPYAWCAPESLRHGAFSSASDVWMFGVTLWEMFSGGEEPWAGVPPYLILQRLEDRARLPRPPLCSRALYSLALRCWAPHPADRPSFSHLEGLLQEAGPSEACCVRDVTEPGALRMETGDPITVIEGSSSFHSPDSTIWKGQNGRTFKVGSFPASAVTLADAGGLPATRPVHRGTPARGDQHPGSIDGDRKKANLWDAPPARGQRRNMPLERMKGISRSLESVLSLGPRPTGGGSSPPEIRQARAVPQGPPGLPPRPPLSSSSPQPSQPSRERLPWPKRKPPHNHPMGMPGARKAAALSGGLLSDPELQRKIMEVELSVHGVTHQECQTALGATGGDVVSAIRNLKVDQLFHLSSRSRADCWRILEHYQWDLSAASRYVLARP
The experiment in a line: Radiometric kinase assay, off-target TNK1. It counts as biochemical. The following applies: off-target from DiscoveRx kinome profiling. The method, then:
as §1

For a further assay, the target named is FLT4/VEGFR3 (Homo sapiens, UniProt P35916). The assay can be described thus: Radiometric kinase assay, off-target FLT4/VEGFR3. It is filed as biochemical. To be noted: off-target from DiscoveRx kinome profiling. The method, then:
as §1

A further assay deals with NIH/3T3 cells. The assay can be described thus: Cilia formation assay in NIH/3T3 cells. It counts as cell-based, mouse. To be noted: serum-starved NIH/3T3. How it is done:
Cilia formation assay in NIH/3T3 cells. […] Cells were seeded onto coverslips and starved for 40 hours by replacing their media with DMEM+0.5% defined bovine serum. Cells were then washed with PBS, fixed with 100% methanol (−20° C., 5 minutes), stained with antibodies against γ-tubulin and IFT-88, and mounted onto slides. Image acquisition and deconvolution were performed on the DeltaVision system, as above. Subsequent image processing was performed in ImageJ.

Sequence of ROS/ROS1 (P08922 28-2347): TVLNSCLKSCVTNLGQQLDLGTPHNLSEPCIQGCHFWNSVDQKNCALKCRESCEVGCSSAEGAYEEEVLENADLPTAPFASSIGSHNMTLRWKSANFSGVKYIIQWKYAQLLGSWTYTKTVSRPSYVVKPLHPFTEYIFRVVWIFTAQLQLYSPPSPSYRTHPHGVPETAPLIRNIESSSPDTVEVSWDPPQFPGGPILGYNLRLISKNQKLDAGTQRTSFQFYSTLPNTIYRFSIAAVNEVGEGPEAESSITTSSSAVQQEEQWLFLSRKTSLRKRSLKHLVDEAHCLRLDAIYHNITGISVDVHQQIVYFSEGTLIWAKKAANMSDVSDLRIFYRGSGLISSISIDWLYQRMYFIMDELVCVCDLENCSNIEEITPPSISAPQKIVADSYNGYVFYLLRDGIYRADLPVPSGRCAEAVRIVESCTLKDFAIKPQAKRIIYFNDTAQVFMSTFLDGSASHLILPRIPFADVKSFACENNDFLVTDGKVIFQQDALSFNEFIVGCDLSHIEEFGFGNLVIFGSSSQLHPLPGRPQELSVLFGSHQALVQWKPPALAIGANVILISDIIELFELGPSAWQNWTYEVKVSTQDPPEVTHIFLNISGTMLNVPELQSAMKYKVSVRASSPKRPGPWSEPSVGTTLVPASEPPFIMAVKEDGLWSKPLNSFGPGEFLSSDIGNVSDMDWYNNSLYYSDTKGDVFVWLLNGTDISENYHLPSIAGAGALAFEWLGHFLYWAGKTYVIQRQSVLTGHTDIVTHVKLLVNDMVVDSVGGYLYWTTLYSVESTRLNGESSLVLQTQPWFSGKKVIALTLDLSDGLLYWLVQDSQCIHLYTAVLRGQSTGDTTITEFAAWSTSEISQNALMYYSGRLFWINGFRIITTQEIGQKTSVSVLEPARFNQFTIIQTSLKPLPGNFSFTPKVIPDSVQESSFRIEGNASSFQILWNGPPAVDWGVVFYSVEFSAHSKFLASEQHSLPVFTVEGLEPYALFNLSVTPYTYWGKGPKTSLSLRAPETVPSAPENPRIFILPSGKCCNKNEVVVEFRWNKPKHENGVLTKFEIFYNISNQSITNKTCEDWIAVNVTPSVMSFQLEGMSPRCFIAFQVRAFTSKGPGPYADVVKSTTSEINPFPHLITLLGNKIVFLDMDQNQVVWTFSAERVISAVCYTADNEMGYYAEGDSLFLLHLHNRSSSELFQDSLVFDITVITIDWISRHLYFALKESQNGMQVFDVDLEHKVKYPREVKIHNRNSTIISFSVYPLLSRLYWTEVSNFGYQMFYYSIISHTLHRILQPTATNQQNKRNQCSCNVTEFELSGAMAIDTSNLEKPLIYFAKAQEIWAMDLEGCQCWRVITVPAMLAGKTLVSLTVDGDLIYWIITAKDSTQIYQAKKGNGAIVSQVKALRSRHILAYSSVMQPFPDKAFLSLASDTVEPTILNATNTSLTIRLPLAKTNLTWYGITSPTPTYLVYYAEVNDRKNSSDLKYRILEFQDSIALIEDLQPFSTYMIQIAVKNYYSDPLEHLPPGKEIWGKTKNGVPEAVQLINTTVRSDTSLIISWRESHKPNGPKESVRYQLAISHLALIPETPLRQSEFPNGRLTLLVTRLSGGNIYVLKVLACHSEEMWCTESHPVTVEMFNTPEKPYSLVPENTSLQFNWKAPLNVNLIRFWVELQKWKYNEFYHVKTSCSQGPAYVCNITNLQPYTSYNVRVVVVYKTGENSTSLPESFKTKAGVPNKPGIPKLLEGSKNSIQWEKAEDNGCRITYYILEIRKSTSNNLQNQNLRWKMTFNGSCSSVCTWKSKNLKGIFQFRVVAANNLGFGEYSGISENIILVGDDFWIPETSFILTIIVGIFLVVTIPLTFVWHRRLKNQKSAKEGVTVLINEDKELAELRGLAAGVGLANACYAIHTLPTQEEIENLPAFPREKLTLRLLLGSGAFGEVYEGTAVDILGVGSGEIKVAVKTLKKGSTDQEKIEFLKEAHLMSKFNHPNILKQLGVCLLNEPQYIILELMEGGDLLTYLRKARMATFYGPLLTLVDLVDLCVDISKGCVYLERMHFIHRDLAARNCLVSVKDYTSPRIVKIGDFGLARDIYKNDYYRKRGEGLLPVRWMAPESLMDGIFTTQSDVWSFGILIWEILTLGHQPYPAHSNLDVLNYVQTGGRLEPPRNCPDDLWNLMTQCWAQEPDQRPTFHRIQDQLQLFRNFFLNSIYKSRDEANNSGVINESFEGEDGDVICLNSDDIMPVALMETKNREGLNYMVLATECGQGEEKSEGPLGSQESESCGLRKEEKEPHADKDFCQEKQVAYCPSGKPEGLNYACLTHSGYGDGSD
Sequence of FLT4/VEGFR3 (P35916 25-1363): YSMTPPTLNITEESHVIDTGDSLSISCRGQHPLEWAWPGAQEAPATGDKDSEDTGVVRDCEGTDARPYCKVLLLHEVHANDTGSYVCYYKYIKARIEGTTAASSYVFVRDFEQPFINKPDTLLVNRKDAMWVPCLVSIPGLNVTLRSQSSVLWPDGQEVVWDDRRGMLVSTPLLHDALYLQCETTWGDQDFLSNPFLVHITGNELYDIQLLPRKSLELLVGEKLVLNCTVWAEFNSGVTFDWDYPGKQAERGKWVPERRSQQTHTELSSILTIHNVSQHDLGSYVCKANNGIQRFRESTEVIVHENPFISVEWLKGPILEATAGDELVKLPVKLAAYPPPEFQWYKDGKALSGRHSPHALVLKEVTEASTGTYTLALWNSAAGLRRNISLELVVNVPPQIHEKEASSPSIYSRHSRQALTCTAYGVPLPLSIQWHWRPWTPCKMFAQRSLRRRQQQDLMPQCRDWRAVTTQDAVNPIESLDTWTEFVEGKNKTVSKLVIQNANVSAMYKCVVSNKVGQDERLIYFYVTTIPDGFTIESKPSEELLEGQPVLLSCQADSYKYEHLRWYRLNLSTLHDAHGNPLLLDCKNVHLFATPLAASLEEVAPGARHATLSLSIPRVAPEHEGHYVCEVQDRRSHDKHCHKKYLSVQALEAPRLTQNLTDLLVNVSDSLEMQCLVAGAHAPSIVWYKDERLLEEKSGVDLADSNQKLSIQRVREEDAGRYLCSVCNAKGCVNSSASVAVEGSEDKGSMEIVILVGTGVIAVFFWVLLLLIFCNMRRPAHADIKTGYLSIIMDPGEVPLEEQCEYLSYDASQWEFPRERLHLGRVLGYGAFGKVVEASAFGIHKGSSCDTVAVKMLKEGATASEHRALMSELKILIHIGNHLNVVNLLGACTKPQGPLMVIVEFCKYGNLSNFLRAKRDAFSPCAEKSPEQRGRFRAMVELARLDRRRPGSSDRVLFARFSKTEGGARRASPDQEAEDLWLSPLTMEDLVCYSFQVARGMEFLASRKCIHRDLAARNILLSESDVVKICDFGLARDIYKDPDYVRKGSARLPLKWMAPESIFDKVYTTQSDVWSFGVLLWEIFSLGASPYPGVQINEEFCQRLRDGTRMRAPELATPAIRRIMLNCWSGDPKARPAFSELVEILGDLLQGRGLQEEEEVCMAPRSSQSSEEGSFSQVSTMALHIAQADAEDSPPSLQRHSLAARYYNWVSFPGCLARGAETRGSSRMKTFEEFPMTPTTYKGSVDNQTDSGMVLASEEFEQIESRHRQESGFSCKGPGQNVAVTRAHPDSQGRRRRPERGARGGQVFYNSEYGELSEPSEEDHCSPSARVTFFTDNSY
T1 sequence (Q96GD4 whole entry): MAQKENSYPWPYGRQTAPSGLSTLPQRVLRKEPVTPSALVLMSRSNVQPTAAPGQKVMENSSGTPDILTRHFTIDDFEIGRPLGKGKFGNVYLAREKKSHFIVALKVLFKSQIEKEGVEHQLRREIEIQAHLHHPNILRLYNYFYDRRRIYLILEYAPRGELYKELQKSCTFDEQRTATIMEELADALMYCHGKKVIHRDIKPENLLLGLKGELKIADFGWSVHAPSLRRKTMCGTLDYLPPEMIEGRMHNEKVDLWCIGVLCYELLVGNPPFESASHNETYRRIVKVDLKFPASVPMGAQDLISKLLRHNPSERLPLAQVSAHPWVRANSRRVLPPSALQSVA

In the case of `COc1c(Nc2cc(C)[nH]n2)nc(Sc2ccc(S(=O)(=O)Cc3cccc([N+](=O)[O-])c3F)cc2F)nc1N1CCOCC1` [Centrinone, 2-((2-fluoro-4-((2-fluoro-3-nitrobenzyl)sulfonyl)phenyl)thio)-5-methoxy-N-(5-methyl-1H-pyrazol-3-yl)-6-morpholinopyrimidin-4-amine], the inhibitory constant (Ki) on Aurora B came out at 437 nM; at ROS/ROS1, 2.77 nM; on TNK1, 1.38 nM; at FLT4/VEGFR3, 6.29 nM. Further, the “percentage of daughters not dividing within 48 hours” value in the assay on RPE1 cells (RPE1, FIG. 18A) worked out at 1.5%. Moreover, in the assay on RPE1 cells (RPE1, acute treatment), the “0-centrosome progeny of pioneer 1-centrosome mothers arrested” value amounted to 33.0%. In addition, the “1-centrosome progeny of pioneer 1-centrosome mothers arrested” value in the assay with RPE1 cells (RPE1, acute treatment) worked out at 25.5%. The “progeny of pioneer 0-centrosome mothers arrested” value in the assay with RPE1 cells (RPE1, acute treatment) is listed as 70%. In addition, the centriole amplification result in assay [1] is “blocked centriole amplification”. Besides, the primary cilia result in the assay with NIH/3T3 cells was “prevents assembly of primary cilia”.

These data come from US10752612B2, “PLK4 inhibitors” (LUDWIG INSTITUTE FOR CANCER RESEARCH LTD, priority 2015, dated 2020).
